13 molecules from PubChem BioAssay (NCI) can be followed below.

Values joined by “and” are separate entries in the source; they are usually repeats but may differ in a detail not shown here. Identical values can stand only once.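 Results reflect a 48-hour exposure of cells in 96-well plates to compound at five concentrations. GI50: concentration for 50% inhibition of growth. TGI marks complete inhibition of growth.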 A value given as a limit tells only on which side of the number the result lay.

Common to all, as to test: DTP human tumour cell line panel, 48 h
Test [1] relates to HOP-92 NSCLC.
Test [2] has as its system T-47D breast.
The test system of test [3] is HCT-15 colon.
Test [4] has as its system KM12 colon.
Test [5] deals with HCT-116 colon.
Test [6] relates to UACC-62 melanoma.
Test [7] deals with SR leukemia.
Test [8] deals with SF-539 CNS.
The test system of test [9] is UACC-257 melanoma.
Test [10] deals with MALME-3M melanoma.

Take `COc1ccc(/C=C(/c2ccccc2)[N+](=O)[O-])cc1`: the GI50 (as a rule, the concentration that inhibits growth by half) in test [1] is 1.08 µM; in [2], 1.2 µM; in test [3], 0.446 µM; in [4], 1.85 µM; in test [5] it was 1.03 µM; in test [6], 1.5 µM. Moreover, the GI50 in test [7] was 0.464 µM; in test [8] it was 1.77 µM; in test [9] it was 1.6 µM; in [10], 1.42 µM. The TGI (as a rule, the concentration at which net growth stops) in [1] is 2.48 µM; in test [2], 4.5 µM; in test [3], 1.86 µM; in test [4] it was 3.5 µM; in test [5] it was 2.29 µM; in [6] it was 3.17 µM. In addition, the TGI in test [7] amounted to 6.95 µM; in test [8], 3.18 µM; in test [9] it was 3.4 µM; in [10], 2.94 µM.
In the case of `O=C(N/N=C/c1ccc([N+](=O)[O-])o1)c1ccc(O)cc1`, the GI50 in test [1] is 17.5 µM; in test [2], 6.96 µM; in test [3], 4.06 µM; in test [4], 5.43 µM; in [5] it was 3.63 µM; in test [6], 2.21 µM. Further, the GI50 in test [7] is 2.84 µM; in [8], 4.39 µM; in test [9], 4.97 µM; in test [10] it was 1.11 µM. The concentration for total growth inhibition (TGI) is 80.9 µM in test [1]; 32.7 µM in test [2]; 25.4 µM in test [3]; above 100 µM in test [4]; 12 µM in [5]; 6.93 µM in test [6]. The TGI in test [7] is above 100 µM; in test [8], 17 µM; in [9], 18.8 µM; in test [10] it was 2.56 µM.
Take `C[C@H]1CCC/C=C/[C@@H]2C[C@H](O)C[C@H]2[C@H](O)[C@@H](SCC(O)CO)CC(=O)O1` (stereo partly drawn): the GI50 is 37.7 µM in [1]; 45.2 µM in [2]; 18.9 µM in test [3]; 3.81 µM in test [4]; 35.5 µM in test [5]; 16.3 µM in [6]. Further, the GI50 in test [7] is 29 µM; in test [8], 31.8 µM; in test [9], 6.74 µM; in [10] it was above 100 µM. Also, the TGI in test [1] was above 100 µM; in [2], above 100 µM; in test [3] it was 46.2 µM; in test [4], 20 µM; in [5], above 100 µM; in test [6] it was 82.2 µM. In addition, the concentration for total growth inhibition (TGI) in [7] was 96.8 µM; in [8], above 100 µM; in test [9] it was above 100 µM; in test [10], above 100 µM.
`Cn1c(=O)c2c(ncn2CC(=O)Nc2ccc(-c3ccccc3)nn2)n(C)c1=O`: the GI50 was above 100 µM in [1]; 75.6 µM in [2]; above 100 µM in test [3]; above 100 µM in test [4]; above 100 µM in test [5]; 84.7 µM in [6]. For the same molecule, the GI50 in test [7] was 42.9 µM; in [8], above 100 µM; in test [9] it was above 100 µM; in test [10] it was above 100 µM. Further, the TGI in test [1], in [2], in test [3], in test [4], in test [5] and in test [6] was above 100 µM in each case. Also, the TGI in test [7], in [8], in test [9] and in test [10] was above 100 µM throughout.
As to `CC(C)C1=C2CCC3(C)C(CCC4C5C6OCC5(CCC6(C)C)CCC43C)C2(C)CC1` (stereo not drawn), the total growth inhibition concentration (TGI) in test [1] came out at 40.8 µM; in test [2] it was 63 µM; in [3], 40.7 µM; in [4], 35.2 µM; in test [5], 34.4 µM; in test [6], 41.3 µM. The TGI in test [7] was 30.6 µM; in test [8], 32.9 µM; in test [9] it was 36.1 µM; in test [10] it was 38.6 µM.
For the molecule `N#Cc1ccc(OC(=O)Nc2ccc(Cl)c(Cl)c2)cc1`, the GI50 in test [1] was 1.9 µM; in test [2], 3.15 µM; in test [3], 2.94 µM; in [4], 3.27 µM; in [5], 3.4 µM; in test [6], 3.06 µM. The GI50 is 7.67 µM in test [7], 4.43 µM in [8], 4.07 µM in [9] and 3.81 µM in [10]. Besides, the total growth inhibition concentration (TGI) is 7.34 µM in test [1]; 12.8 µM in test [2]; 13.8 µM in test [3]; 12.8 µM in [4]; above 100 µM in test [5]; 31.7 µM in test [6]. The concentration for total growth inhibition (TGI) in test [7] was determined as 93.2 µM; in test [8], 33 µM; in test [9], 23.9 µM; in [10], 20.6 µM.
With `CCCCCCCCCCN1CCC(N2CCCCC2)CC1`, the GI50 in test [1] was 0.763 µM; in test [2] it was 1.53 µM; in test [3], 1.38 µM; in [4] it was 1.82 µM; in test [5], 1.27 µM; in test [6], 1.76 µM. The GI50 was 0.627 µM in test [7], 1.48 µM in test [8], 1.76 µM in test [9] and 1.97 µM in test [10]. Further, the TGI in test [1] turned out to be 8.5 µM; in test [2] it was 3.58 µM; in test [3], 3.73 µM; in test [4], 3.75 µM; in test [6], 3.4 µM; in test [7], 2.98 µM. The TGI was 2.88 µM in test [8], 3.24 µM in test [9] and 3.98 µM in [10].
As for `O=C(N/N=C/c1c(Cl)cccc1Cl)c1ccc(C(F)(F)F)nc1Nc1cccc(C(F)(F)F)c1`, the GI50 in test [1] is 0.293 µM; in test [2] it was 0.971 µM; in test [3] it was 0.437 µM; in test [4], 1.1 µM; in [5], 0.461 µM; in test [6] it was 1.39 µM. Moreover, the GI50 was 0.457 µM in test [7], 2.11 µM in test [8], 1.02 µM in test [9] and 2.17 µM in test [10]. The TGI in [1] was 3 µM; in [2], 11.8 µM; in test [3] it was above 100 µM; in test [4], above 30 µM; in test [5], 38.8 µM; in test [6] it was 4.12 µM. Also, the TGI in test [7] was 14.4 µM; in test [8], 8.09 µM; in test [9] it was above 100 µM; in [10], 9.23 µM.
In the case of `CCOC(CN(C)C(=S)Nc1cccc2ccccc12)OCC`, the total growth inhibition concentration (TGI) in [1], in [2], in test [3], in [4], in [5] and in [6] was above 10 µM each time. For the same molecule, the TGI in test [7], in [8], in [9] and in [10] was above 10 µM in each case.
With `Cc1ncc([N+](=O)[O-])n1CCNS(=O)(=O)CCCn1ncnc1[N+](=O)[O-]`, the TGI in test [1], in test [2], in test [3], in [4], in [5] and in test [6] was above 100 µM throughout. In addition, the concentration for total growth inhibition (TGI) in [7], in test [8], in test [9] and in test [10] was above 100 µM throughout.
With `O=C(Nc1ccc(Cl)c(Cl)c1)Nc1ccccc1O`, the GI50 in [1] is 6.46 µM; in [2] it was 4.11 µM; in test [3] it was 4.46 µM; in test [4], 3.35 µM; in test [5], 7.22 µM; in [6], 5.12 µM. Besides, the GI50 was 4.57 µM in [7], 12.4 µM in test [8], 6.6 µM in test [9] and 4.82 µM in test [10]. Further, the TGI in [1] came out at 27.3 µM; in [2], 43.6 µM; in test [3], 23.9 µM; in test [4], 13.7 µM; in test [5] it was 33.5 µM; in test [6], 19.8 µM. Moreover, the concentration for total growth inhibition (TGI) in [7] is 24.8 µM; in test [8], 30.4 µM; in test [9], 25 µM; in test [10], 20.3 µM.
With `CCCCCc1ccc(S(=O)(=O)Nc2cc(-c3csc(NC(C)=O)n3)ccc2N2CCN(C)CC2)cc1`, the GI50 in [1] was 3.68 µM; in [2], 4.8 µM; in test [3] it was 1.08 µM; in [4] it was 5.65 µM; in [5] it was 1.11 µM; in [6] it was 3.83 µM. In addition, the GI50 in test [7] is 0.929 µM; in test [8], 4.98 µM; in [9], 4.48 µM; in [10], 4.05 µM. Also, the TGI is 8.84 µM in [1]; 11.7 µM in test [2]; 4.49 µM in test [3]; 11 µM in test [4]; 4.43 µM in [5]; 8.04 µM in [6]. For the same molecule, the total growth inhibition concentration (TGI) amounted to 2.77 µM in [7], 9.63 µM in test [8], 11.4 µM in [9] and 9.11 µM in test [10].
On to `O=c1[nH]c(=O)n([C@H]2CCCO2)cc1F`, for which the TGI in test [1], in test [2], in test [3], in test [4], in [5] and in test [6] was above 5000 µM each time. The TGI in test [7] is above 2360 µM; in test [8], 864 µM and 3520 µM; in test [9] it was above 5000 µM; in test [10], above 5000 µM. For the same molecule, the GI50 in [2] was 2610 µM; in [3], 1050 µM; in test [4] it was 1320 µM; in test [5], 1020 µM; in test [6], 2040 µM; in test [7] it was 473 µM. Further, the values for the GI50 in test [8], in test [9] and in test [10] were 374 µM, 3540 µM and 1360 µM, respectively.
